In patent publication EP1138682A1, “Novel water soluble c-ring analogues of 20 (s)-camptothecin” (priority 1996, dated 1997):
Read-outs that look alike come from different tables or passages of the source.

Columns and labels:
[1] = test system: NCI's 60 human tumor cell line; test: NCI 60 human tumor cell line assay (sulforhodamine B); assay type: cell-based; conditions: read-out: IC50 (the source's name)
Protocol: Each test compound was screened against a battery of 60 human cell lines obtained from eight organs. In a typical procedure, the cell suspensions that were diluted according to the particular cell type and the expected target cell density (5000-40,000 cells per well based on cell growth characteristics) were added into 96-well microtiter plates. Inoculates were allowed a preincubation period of 24h at 37°C. for stabilization. Dilutions at twice the intended test concentrations were added at time zero in 100-µl aliquots to microtiter plate wells. Usually test compounds were evaluated at five 10-fold dilutions. The highest well concentration used in the test is 10^-4M. The cells are then incubated in the presence of drug (the test compound) for further 48h in 5% CO2 atmosphere and 100% humidity. At the end of this time, the adherent cells are fixed to the plate by means of trichloroacetic acid, and after a number of washes, the cell layer is treated with the protein stain Sulforhodamine B. The optical density which is proportional to protein mass, is then read by automated spectrophotometric plate readers at a wavelength of 515 nm. Readings are transferred to a microcomputer and final reports are generated using especially developed software.

Human Serum Albumin = Human Serum Albumin (Homo sapiens, UniProt P02768); conditions: in the presence of HSA at 37°C; comparison in words; cited from earlier work
Chain of Human Serum Albumin (P02768 25-609): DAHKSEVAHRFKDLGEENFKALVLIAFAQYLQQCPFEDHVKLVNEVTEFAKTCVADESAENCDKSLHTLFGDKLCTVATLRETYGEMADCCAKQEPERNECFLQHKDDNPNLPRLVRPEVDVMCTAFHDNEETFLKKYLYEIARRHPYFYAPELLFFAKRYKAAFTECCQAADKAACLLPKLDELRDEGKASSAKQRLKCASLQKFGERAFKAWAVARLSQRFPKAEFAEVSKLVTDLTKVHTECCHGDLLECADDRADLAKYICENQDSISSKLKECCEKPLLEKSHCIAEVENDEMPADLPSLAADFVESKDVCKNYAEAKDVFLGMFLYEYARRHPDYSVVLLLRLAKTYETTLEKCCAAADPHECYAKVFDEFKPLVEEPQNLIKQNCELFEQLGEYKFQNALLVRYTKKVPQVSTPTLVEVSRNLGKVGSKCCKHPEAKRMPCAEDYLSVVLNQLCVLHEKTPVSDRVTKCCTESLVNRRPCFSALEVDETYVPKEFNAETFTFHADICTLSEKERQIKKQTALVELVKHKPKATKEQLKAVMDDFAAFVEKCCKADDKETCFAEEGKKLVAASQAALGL

[2] = mean value of GI50 (50% cell growth inhibition) over NCI's 60 human tumor cell lines, 48h incubation with drug

Row | Compound | GI50 [1, 2] [µM] | further results
1 | 5-(2'-N-pyrrolidinoethoxy)-7-ethylcamptothecin [Example 39] | 18.6 | 
2 | 5-(2'-aminoethoxy)-7-ethylcamptothecin [Example 37] | 18.6 | 
3 | CC[C@@]1(O)C(=O)OCc2c1cc1n(c2=O)C(OCCO)c2cc3c([N+](=O)[O-])cccc3nc2-1 (stereo partly shown) [9-Nitro-5-(2'-hydroxyethoxy)camptothecin] |  | GI50 ([1]; Homo sapiens, 48 h): 7.94 µM
4 | CCOC1c2cc3c(O)cccc3nc2-c2cc3c(c(=O)n21)COC(=O)[C@]3(O)CC (stereo partly shown) [Example 11, 5-Ethoxy-9-hydroxycamptothecin] | 6.68 | 
5 | CC[C@@]1(O)C(=O)OCc2c1cc1n(c2=O)C(OCC(F)(F)F)c2cc3cc(O)ccc3nc2-1 (stereo partly shown) [Example 27, 10-Hydroxy-5-trifluoroethoxycamptothecin] | 0.38 | 
6 | CC[C@@]1(O)C(=O)OCc2c1cc1n(c2=O)C(OCCOC)c2cc3ccccc3nc2-1 (stereo partly shown) [Example 43, 5-(2'-methoxyethoxy)camptothecin] | 2.23 | 
7 | CCc1c2c(nc3ccc(O)cc13)-c1cc3c(c(=O)n1C2)COC(=O)[C@]3(O)CC [SN-38, 7-ethyl-10-hydroxycamptothecin] |  | percentage (%) of lactone form at equilibrium (Human Serum Albumin): higher percentage (%) of lactone form at equilibrium than 20(S) camptothecin of the formula 3 and 9-aminocamptothecin of the formula 6
